The values below are quoted from earlier work in US12144796B2, “Formulations for treating cluster symptoms associated with autism spectrum disorder” (Ilera Therapeutics LLC, priority 2019, dated 2024).

`CC12CCC(CC1)C(C)(C)O2` [Eucalyptol, 1,3,3-trimethyl-2-oxabicyclo[2.2.2]octane]: the solubility in water entry is “insoluble in water”.
